Measurements reported in PMC7576618 (British Journal of Clinical Pharmacology, 2020).
Where “and” joins values, the source holds several entries; their conditions need not be identical. Equal entries are not always repeated. Entries after “also recorded” stand apart in the source; their conditions may differ.

Legend:
[1] = SAD study: plasma pharmacokinetics after single oral TS-134; assay type: in vivo, human; conditions: for AUC / Cmax / half-life / Tmax: both, human, plasma; for AUC: AUC0‐inf; for AUC / Cmax: mean (CV[%]); for Tmax: median
[2] = SAD study Part B: CSF pharmacokinetics of MGS0008 after 10 mg TS-134; assay type: in vivo, human; conditions: 10 mg TS‐134 under fed condition
[3] = MAD study: plasma pharmacokinetics after multiple oral dose titration of TS-134; assay type: in vivo, human; conditions: for AUC / half-life: both, human, plasma, oral, MAD Day 14, fed; for AUC: AUC0‐tau, mean (CV[%]); for half-life: t1/2, mean (CV[%])
[4] = SAD study: urinary excretion; assay type: in vivo, human; conditions: for CL renal: both, human, oral
[5] = MAD study: urinary excretion; assay type: in vivo, human; conditions: urine, MAD Day 14; for CL renal: both, human, oral, CLr, mean (CV[%])
mGlu3 receptor = conditions: read-out: in vitro EC50 for mGlu3 receptor; authors' assay system; cited from earlier work
[6] = rats; cited from earlier work
[7] = system: spontaneous locomotor activity in rats; experiment: Spontaneous locomotor activity; conditions: doses similar to those which block psychostimulants‐induced hyperlocomotion
[8] = system: MK‐801‐induced social recognition deficits in rats; experiment: MK-801-induced social recognition deficits; conditions: MGS0008 1, 3, 10 mg kg^-1 p.o., MK-801 0.2 mg kg^-1 i.p.
[9] = system: phencyclidine‐induced locomotor hyperactivity in rats; experiment: Phencyclidine-induced locomotor hyperactivity; conditions: MGS0008 1, 3, 10 mg kg^-1 p.o., phencyclidine 3 mg kg^-1 s.c.
[10] = system: methamphetamine‐induced locomotor hyperactivity in rats; experiment: Methamphetamine-induced locomotor hyperactivity; conditions: MGS0008 1, 3, 10 mg kg^-1 p.o., methamphetamine 1 mg kg^-1 s.c.
[11] = system: memantine‐increased 2‐deoxy‐D‐glucose uptake in the prefrontal cortex; experiment: Memantine-induced 2-deoxy-D-glucose uptake in the prefrontal cortex; conditions: mice; MGS0008 0.3, 1, 3 mg kg^-1 s.c.; memantine 30 mg kg^-1 s.c.
[12] = oral, 5 mg, SAD Parts A and C, 5 mg fasted (n = 6)
[13] = oral, 10 mg, SAD Parts A and C, 10 mg fasted (n = 4)
[14] = oral, 10 mg, SAD Parts A and C, 10 mg fed (n = 3)
[15] = oral, 20 mg, SAD Parts A and C, 20 mg fasted (n = 3)
[16] = oral, 20 mg, SAD Parts A and C, 20 mg fed (n = 3)

SMILES: N[C@]1(C(=O)O)[C@H]2[C@@H](C[C@@H]1F)[C@@H]2C(=O)O [MGS0008, (1S,2S,3S,5R,6S)‐2‐amino‐3‐fluorobicyclo[3.1.0]hexane‐2,6‐dicarboxylic acid]
- reduction of plasma AUC in the fed group (food effect) ([1]; SAD, 10 and 20 mg TS‐134): ≤ 25%
- reduction of plasma Cmax in the fed group (food effect) ([1]; SAD, 10 and 20 mg TS‐134): up to 57%
- AUC [1, 12]: 278 ng·h/mL
- Cmax [1, 12]: 25.9 ng/mL
- half-life ([1]; oral, 5 mg, t1/2, mean (CV[%]), SAD Parts A and C, 5 mg fasted (n = 6)): 7.75 h
- Tmax [1, 12]: 2 h
- AUC [1, 13]: 535 ng·h/mL
- AUC [1, 14]: 390 ng·h/mL
- Cmax [1, 13]: 60.6 ng/mL
- Cmax [1, 14]: 28.1 ng/mL
- half-life ([1]; oral, 10 mg, t1/2, mean (CV[%]), SAD Part B, 10 mg fed (n = 7)): 8.49 h
- half-life ([1]; oral, 10 mg, t1/2, mean (CV[%]), SAD Parts A and C, 10 mg fasted (n = 4)): 8.41 h
- half-life ([1]; oral, 10 mg, t1/2, mean (CV[%]), SAD Parts A and C, 10 mg fed (n = 3)): 8.7 h
- Tmax [1, 13]: 2 h
- Tmax [1, 14]: 4 h
- AUC [1, 15]: 840 ng·h/mL
- AUC [1, 16]: 677 ng·h/mL
- Cmax [1, 15]: 89.4 ng/mL
- Cmax [1, 16]: 60.2 ng/mL
- half-life ([1]; oral, 20 mg, t1/2, mean (CV[%]), SAD Parts A and C, 20 mg fasted (n = 3)): 6.96 h
- half-life ([1]; oral, 20 mg, t1/2, mean (CV[%]), SAD Parts A and C, 20 mg fed (n = 3)): 6.91 h
- Tmax [1, 15]: 3 h
- Tmax [1, 16]: 2 h
- half-life ([1]; po, terminal half‐life (t1/2) in plasma, single and multiple oral administration of TS‐134 (SAD and MAD studies)): ~10 h
- plasma Cmax of MGS0008 relative to that of MGS0274 ([1]; molar ratio, SAD and MAD studies): approximately 6 fold
- plasma AUC of MGS0008 relative to that of MGS0274 ([1]; molar ratio, all treatment groups with or without food): approximately 30 fold
- mean CSF Cmax (molar) [2]: 6.12 nM
- dose proportionality of steady‐state plasma Cmax and AUC ([3]; MAD, 5–80 mg): increased dose proportionally; also recorded: dose proportional increases
- time for plasma trough concentrations to reach steady state ([3]; after initiating multiple doses of target dose levels, data not shown): ≤ 2 days
- AUC ([3]; 5 mg, 5 mg (n = 8)): 233 ng·h/mL
- half-life ([3]; 5 mg, 5 mg (n = 8)): 9.68 h
- AUC ([3]; 10 mg, 10 mg (n = 8)): 475 ng·h/mL
- half-life ([3]; 10 mg, 10 mg (n = 8)): 10.9 h
- AUC ([3]; 20 mg, 20 mg (n = 8)): 817 ng·h/mL
- half-life ([3]; 20 mg, 20 mg (n = 8)): 10.4 h
- AUC ([3]; 40 mg, 40 mg (n = 8)): 1640 ng·h/mL
- half-life ([3]; 40 mg, 40 mg (n = 8)): 10.3 h
- AUC ([3]; 60 mg, 60 mg (n = 8)): 3100 ng·h/mL
- half-life ([3]; 60 mg, 60 mg (n = 8)): 9.43 h
- urinary excretion rate, % of the administered doses ([4]; SAD and MAD studies, dose range 5–80 mg): 29.38 to 69.01% and 29.38–69.01%
- CL renal ([4]; urine and plasma, renal clearance, range, SAD and MAD studies): 70.6 to 103 mL/min
- CL renal ([4]; urine, 5 mg, CLr, mean (CV[%]), SAD Parts A and C, 5 mg fasted (n = 6)): 101 mL/min
- CL renal ([4]; urine, 10 mg, CLr, mean (CV[%]), SAD Parts A and C, 10 mg fasted (n = 4)): 89.8 mL/min
- CL renal ([4]; urine, 10 mg, CLr, mean (CV[%]), SAD Parts A and C, 10 mg fed (n = 3)): 103 mL/min
- CL renal ([4]; urine, 20 mg, CLr, mean (CV[%]), SAD Parts A and C, 20 mg fasted (n = 3)): 73.9 mL/min
- CL renal ([4]; urine, 20 mg, CLr, mean (CV[%]), SAD Parts A and C, 20 mg fed (n = 3)): 70.6 mL/min
- Fe (0–48), mean (CV[%]) ([4]; urine, SAD Part B, 10 mg fed (n = 7)): 55.77 (15.99) %
- Fe (0–48), mean (CV[%]) ([4]; urine, SAD Parts A and C, 5 mg fasted (n = 6)): 69.01 (10.23) %
- Fe (0–48), mean (CV[%]) ([4]; urine, SAD Parts A and C, 10 mg fasted (n = 4)): 60.61 (36.10) %
- Fe (0–48), mean (CV[%]) ([4]; urine, SAD Parts A and C, 10 mg fed (n = 3)): 49.65 (38.35) %
- Fe (0–48), mean (CV[%]) ([4]; urine, SAD Parts A and C, 20 mg fasted (n = 3)): 38.55 (65.52) %
- Fe (0–48), mean (CV[%]) ([4]; urine, SAD Parts A and C, 20 mg fed (n = 3)): 29.38 (52.53) %
- CL renal ([5]; 5 mg, 5 mg (n = 8)): 85.2 mL/min
- CL renal ([5]; 10 mg, 10 mg (n = 8)): 88.2 mL/min
- CL renal ([5]; 20 mg, 20 mg (n = 8)): 103 mL/min
- CL renal ([5]; 40 mg, 40 mg (n = 8)): 93.3 mL/min
- CL renal ([5]; 60 mg, 60 mg (n = 8)): 78.7 mL/min
- Fe (0–24), mean (CV[%]) ([5]; 5 mg (n = 8)): 48.03 (36.10) %
- Fe (0–24), mean (CV[%]) ([5]; 10 mg (n = 8)): 51.79 (24.95) %
- Fe (0–24), mean (CV[%]) ([5]; 20 mg (n = 8)): 50.42 (20.58) %
- Fe (0–24), mean (CV[%]) ([5]; 40 mg (n = 8)): 48.06 (13.48) %
- Fe (0–24), mean (CV[%]) ([5]; 60 mg (n = 8)): 50.48 (24.14) %
- Fe (0–24), mean (CV[%]) ([5]; 80 mg Cohort 5 (n = 7)): 43.69 (36.76) %
- Fe (0–24), mean (CV[%]) ([5]; 80 mg Cohort 6 (n = 6)): 37.21 (35.47) %
- EC50 (mGlu3 receptor): 0.0454 µM
- CSF‐to‐plasma AUC ratio [6]: 2.8%
- presence in the cerebrospinal fluid (CSF) after oral administration of MGS0008 [6]: detected
- effect on spontaneous locomotor activity [7]: significantly reduced
- effect on MK‐801‐induced impaired social memory [8]: significantly reversed
- effect on phencyclidine‐induced locomotor hyperactivity [9]: significantly attenuated
- effect on methamphetamine‐induced locomotor hyperactivity [10]: significantly attenuated
- effect on memantine‐increased 2‐deoxy‐D‐glucose uptake (2‐DG6P) in the prefrontal cortex [11]: attenuated
